From US9862730B2, “Imidazothiadiazole derivatives as protease activated receptor 4 (PAR4) inhibitors for treating platelet aggregation” (BRISTOL-MYERS SQUIBB COMPANY, priority 2012, dated 2018)
Where two headings read alike, the source gives them in different places.

Columns and labels:
PAR4 [1] = molecular target: T1, PAR4 (Homo sapiens (Human), UniProt Q96RI0); experiment: Gamma thrombin induced platelet aggregation assay in PRP (PRP assay); assay type: cell-based
Text: The compounds of the current invention can be tested in vitro for their ability to inhibit platelet aggregation induced by gamma-thrombin as shown in Example C. Gamma-thrombin, a proteolytic product of alpha-thrombin which no longer interacts with PAR1, selectively cleaves and activates PAR4 (Soslau, G. et al., “Unique pathway of thrombin-induced platelet aggregation mediated by glycoprotein Ib”, J. Biol. Chem., 276:21173-21183 (2001)). Platelet aggregation can be monitored in a 96-well microplate aggregation assay format or using standard platelet aggregometer. The aggregation assay can also be employed to test the selectivity of the compound for inhibiting platelet aggregation induced by PAR4 agonist peptides, PAR1 agonist peptide, ADP, or thromboxane analogue U46619.
The platelet rich plasma was isolated by centrifugation at 170 g for 14 minutes.
The ability of the compounds of the current invention to inhibit platelet aggregation induced by gamma-thrombin was tested in a 96-well microplate aggregation assay format. Briefly, PRP or washed platelet suspension (100 μl) was pre-incubated for 5 minutes at room temperature with varying concentrations of compounds. Aggregation was initiated by ˜10-50 nM gamma thrombin (Haematologic Technologies, Essex Junction, Vt.), which was titrated daily to achieve 80% platelet aggregation. Refludan at 1 U/mL (Berlex, Montville, N.J.) was added to the gamma thrombin sample to prevent PAR1 activation induced by residual alpha-thrombin contamination. The plate was then placed into a 37° C. Molecular Devices (Sunnyvale, Calif.) SPECTRAMAX® Plus Plate Reader. […] Data was collected with SOFTMAX® 4.71 software. The plate also included an untreated control sample which served as ODmax, while buffer containing no platelets was the ODmin. Platelet aggregation was determined by subtracting the ODmax from the ODmin for the 100% aggregation value. In experimental samples, the observed transmission was subtracted from the minimum value and then compared to the 100% aggregation value to determine the percentage aggregation. IC50 values are determined using Excel Fit software.
As indicated above, the PRP assay, an in vitro assay, measures the PAR4 antagonist activity of compounds tested as described in Example C.

PAR4 [2] = molecular target: T1, PAR4; experiment: FLIPR assay in PAR4-expressing HEK293 cells (PAR4 antagonist activity, calcium mobilization); assay type: cell-based; details: FLIPR assay as described in Example A
Method in brief: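 Calcium-flux antagonist readout: compounds preincubated 30 min at room temperature with PAR4-transfected HEK293 cells in HBSS with 10 mM HEPES (0.67% DMSO final), then agonist peptide added. Agonist activity checked on compound addition; cells carry endogenous PAR1.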

[3] = ACS patients, phase III; cited from earlier work
human washed platelets = experiment: Alpha-thrombin induced platelet aggregation assay; assay type: cell-based; details: for IC50: Homo sapiens, Platelet, 0.1 h, AUC at 6 min, read-out: IC50 for the inhibition of platelet aggregation
Protocol: Example D is an alpha-thrombin-induced platelet aggregation assay. Alpha-thrombin activates both PAR1 and PAR4.
Human blood was collected in ACD (85 mM tri-sodium citrate, 78 mM citric acid, 110 mM D-glucose, pH 4.4) at a ratio of 1.4 ml per 10 ml blood. PRP was isolated by centrifugation at 170 g for 14 minutes and platelets were further pelleted by centrifugation at 1300 g for 6 minutes. Platelets were washed once with 10 ml ACD containing 1 mg/ml bovine serum albumin. Platelets were resuspended at ˜2.5×10^8/ml in Tyrode's Buffer (137 mM NaCl, 2 mM KCl, 1.0 mM MgCl2, 1 mM CaCl2, 5 mM glucose, 20 mM HEPES pH 7.4).
The ability of PAR4 antagonist to inhibit platelet aggregation induced by alpha-thrombin was tested using human washed platelets. […] Aggregation was initiated by addition of 2.5 or 5 nM alpha-thrombin (Haematologic Technologies, Essex Junction, Vt.) to 240 μl of washed platelets at stirring speed of 1200 rpm. […] IC50 was calculated using vehicle control as 0% inhibition.

T1 sequence (Q96RI0 18-385): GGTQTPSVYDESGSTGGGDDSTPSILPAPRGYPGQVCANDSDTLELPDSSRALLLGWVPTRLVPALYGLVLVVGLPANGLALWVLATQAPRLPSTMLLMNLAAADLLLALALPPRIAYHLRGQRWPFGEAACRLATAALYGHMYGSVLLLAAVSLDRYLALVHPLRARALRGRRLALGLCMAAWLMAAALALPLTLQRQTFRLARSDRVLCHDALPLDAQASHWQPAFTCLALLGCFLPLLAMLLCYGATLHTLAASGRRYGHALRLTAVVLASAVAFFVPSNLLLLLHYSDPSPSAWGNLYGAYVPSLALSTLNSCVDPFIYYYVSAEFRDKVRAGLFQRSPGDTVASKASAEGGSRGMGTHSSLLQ

Structure (SMILES) | IC50 (PAR4 [1]) | IC50 (PAR4 [2]) | other results
COc1cc(OCc2cccc(OCc3ccc(C(C)(C)C)cc3)c2)c2cc(-c3cn4nc(OC)sc4n3)oc2c1 [Example 393] | 2500 nM | 35.9 nM | 
COc1nn2cc(-c3cc4c(OCc5cccc(OCc6ccccc6)c5)cc(OC)c(Cl)c4o3)nc2s1 [Example 415, 6-(4-((3-(Benzyloxy)benzyl)oxy)-7-chloro-6-methoxybenzofuran-2-yl)-2-methoxyimidazo[2,1-b][1,3,4]thiadiazole] | 3270 nM | 513 nM | 
COc1cc(OCc2ccc(F)cc2)c2cc(-c3cn4nc(OC)sc4n3)oc2c1 [Example 303] | 3190 nM | 5.68 nM | 
COc1cc(OCc2ccc(F)cc2)c2cc(-c3cn4nc(Br)sc4n3)oc2c1 [Example 302] | > 30000 nM | 195 nM | 
COc1cc(OCc2cccc(OCc3ccccc3)c2)c2cc(-c3cn4nc(Cl)sc4n3)oc2c1 [Example 405] | 544 nM | 4.69 nM | 
COc1cc(OCc2cc(Cl)cc(OCc3ccccc3)c2)c2cc(-c3cn4nc(OC)sc4n3)oc2c1 [Example 402] | 151 nM | 6.2 nM | 
COc1nn2cc(-c3cc4c(OCc5cccc(OCc6cccc(C)c6)c5)c(Cc5ccccc5)c(OC)cc4o3)nc2s1 [Example 387] | 2400 nM | 41.5 nM | 
COc1cc(OCc2cccc(OCc3ccc(Oc4ccccc4)cc3)c2)c2cc(-c3cn4nc(OC)sc4n3)oc2c1 [Example 372] | 3410 nM | 2.27 nM | 
CCOc1cccc2cc(-c3cn4nc(OC)sc4n3)oc12 [Example 34] | > 30000 nM | 149 nM | 
COc1cc(OCc2cccc(OCc3cccc(C)n3)c2)c2cc(-c3cn4nc(OC)sc4n3)oc2c1 [Example 307] | 101 nM | 9.23 nM | 
COc1ccc2oc(-c3cn4nc(SC)sc4n3)cc2c1 [Example 16] | > 30000 nM | 369 nM | 
CSc1nn2cc(-c3cc4cccc(C)c4o3)nc2s1 [Example 22] | 8760 nM | 217 nM | 
CCOc1cc(OCc2cccc(OCc3ccccc3)c2)c2cc(-c3cn4nc(OC)sc4n3)oc2c1 [Example 426] | 566 nM | 4.56 nM | 
CSc1nn2cc(-c3nc4ccc(OC(C)C)cc4o3)nc2s1 [Example 161] | > 30000 nM | 79.9 nM | 
COc1cc(OCc2cccc(OCc3cccc(Oc4ccccc4)c3)c2)c2cc(-c3cn4nc(OC)sc4n3)oc2c1 [Example 384] | 568 nM | 5.05 nM | 
COc1nn2cc(-c3oc4c(OC)c(OC)ccc4c3C)nc2s1 [Example 36] | > 30000 nM | 1660 nM | 
COCCOc1cccc2oc(-c3cn4nc(Br)sc4n3)cc12 [Example 252] | > 30000 nM | 121 nM | 
COc1nn2cc(-c3nc4cc(F)ccc4o3)nc2s1 [Example 135] | > 30000 nM | 49.6 nM | 
COc1cc(OCc2cccc(OC(=O)c3ccccc3)c2)c2cc(-c3cn4nc(OC)sc4n3)oc2c1 [Example 355] | 33.3 nM | 1.65 nM | 
COc1nn2cc(-c3nc4ccccc4s3)nc2s1 [Example 5, 2-(2-Methoxyimidazo[2,1-b][1,3,4]thiadiazol-6-yl)benzo[d]thiazole] | > 30000 nM | 351 nM | 
COc1cc(OCc2cccc(OCc3ccccn3)c2)c2cc(-c3cn4nc(OC)sc4n3)oc2c1 [Example 319] | 124 nM | 9.2 nM | 

Structure (SMILES) | IC50 (PAR4 [1]) | IC50 (PAR4 [2]) | other results
CSc1nn2cc(-c3nc4c(OC[C@@H]5CCCN5C(=O)[C@H](NC(=O)c5ccccc5)c5ccccc5)cccc4o3)nc2s1 [Example 337, N—((R)-2-((S)-2-(((2-(2-(Methylthio)imidazo[2,1-b][1,3,4]thiadiazol-6-yl)benzo[d]oxazol-4-yl)oxy)methyl)pyrrolidin-1-yl)-2-oxo-1-phenylethyl)benzamide] | > 30000 nM | 401 nM | 
CCc1nn2cc(-c3nc4cc(C(C)(C)C)ccc4o3)nc2s1 [Example 57] | > 30000 nM | 575 nM | 
COc1cc(OCc2cccc(OCc3ccnc(Cl)c3)c2)c2cc(-c3cn4nc(OC)sc4n3)oc2c1 [Example 320] | 75.5 nM | 3.93 nM | 
COc1cc(OCc2cccc(OCc3c(F)cccc3Cl)c2)c2cc(-c3cn4nc(OC)sc4n3)oc2c1 [Example 370] | 151 nM | 5.3 nM | 
COc1cc(OCc2cccc(OCc3ccccc3)c2)c2cc(-c3cn4nc(C(C)(F)F)sc4n3)oc2c1 [Example 347] | 579 nM | 2.74 nM | 
COc1ccc2nc(-c3cn4nc(OC)sc4n3)oc2c1 [Example 164] | 9160 nM | 15.4 nM | 
COc1cc(COc2cc(OC)cc3oc(-c4cn5nc(OC)sc5n4)cc23)cc(OCc2ccccc2)c1 [Example 404] | 22.5 nM | 2.44 nM | 
CCOC(=O)N[C@@H]1CC[C@@H]2[C@@H](C1)C[C@H]1C(=O)O[C@H](C)[C@H]1[C@H]2/C=C/c1ccc(-c2cccc(F)c2)cn1 [vorapaxar] |  |  | cardiovascular events [3]: did not significantly reduce cardiovascular events; risk of major bleeding [3]: significantly increased the risk of major bleeding
CCc1nn2cc(-c3nc4ccc(OC)cc4o3)nc2s1 [Example 39] | > 30000 nM | 220 nM | 
COc1ccc(COc2cccc(COc3cc(OC)cc4oc(-c5cn6nc(OC)sc6n5)cc34)c2)cc1 [Example 392] | 105 nM | 1.44 nM | 
CCOc1nn2cc(-c3cc4c(OCc5cccc(OCc6ccccc6)c5)cc(OC)cc4o3)nc2s1 [Example 348] | 3080 nM | 2.26 nM | 
COc1cc(OCc2cccc(OCc3ccccc3C)c2)c2cc(-c3cn4nc(OC)sc4n3)oc2c1 [Example 363] | 38.3 nM | 2.42 nM | 
COc1cccc2cc(-c3cn4nc(SC)sc4n3)oc12 [Example 14] | 9440 nM | 8.68 nM | 
COc1cc(OCc2ccccc2)c2cc(-c3cn4nc(OC)sc4n3)oc2c1 [Example 203, 6-(4-(Benzyloxy)-6-methoxybenzofuran-2-yl)-2-methoxyimidazo[2,1-b][1,3,4]thiadiazole] |  |  | inhibition of alpha-thrombin-induced platelet aggregation (FIG. 2) (human washed platelets; 5 nM alpha-thrombin): dose-dependent inhibition; IC50 (human washed platelets; 5 nM alpha-thrombin, n=3): 6.9 ± 0.3 µM; IC50 (human washed platelets; […] alpha-thrombin, n=4): 1.1 ± 0.9 µM
CSc1nn2cc(-c3cc4c(OCc5ccccc5)cc(OCc5ccccc5)cc4o3)nc2s1 [Example 253] | > 30000 nM | 114 nM | 
COc1cc(OCc2cc(F)cc(OCc3ccccc3)c2)c2cc(-c3cn4nc(OC)sc4n3)oc2c1 [Example 350] | 85.7 nM | 0.76 nM | 
COc1cc(COc2cccc(COc3cc(OC)cc4oc(-c5cn6nc(OC)sc6n5)cc34)c2)cc(OCc2ccccc2)c1 [Example 373] | 2500 nM | 7.63 nM | 
COc1cc(OCc2cccc(OCc3ccc(F)c(F)c3F)c2)c2cc(-c3cn4nc(OC)sc4n3)oc2c1 [Example 325] | 86.2 nM | 1.64 nM | 
COc1cc(OCc2cccc(OCc3csc(C)n3)c2)c2cc(-c3cn4nc(OC)sc4n3)oc2c1 [Example 399] | 4.95 nM | 0.59 nM | 
CCOc1nn2cc(-c3nc4ccccc4s3)nc2s1 [Example 27] | > 30000 nM | 1780 nM | 
